Experimental findings from patent US11420968B2 (priority 2018, dated 2022) are described below.

For assay [1], the target named is T1, Bcl-2 (Homo sapiens (Human), UniProt P10415). Kind of assay: biochemical. Particulars: Biochemical activity (IC50, nM) BCL-2.
For assay [2], the target named is T1, Bcl-2.
The subject of assay [3] is RS4;11 cells.
Procedure: Each compound was serially diluted with 1 μM as the maximum concentration. To test the apoptotic effect of the compounds, the cells were seeded at 50,000 in 180 μl per well in 96-well plates and treated with 10-point dilution series of each compound for 48 hours at 37° C. Cell viability was assessed after the treatment using CellTiter-GLO luminescent assay (Promega) according to the manufacturer's recommendations. Briefly, 30 μl of CellTiter-GLO reagent was added into 200 μl of cell culture. Mixture was agitated on an orbital shaker for 5 minutes to ensure cell lysis followed by 7 mins incubation at room temperature to allow development and stabilization of luminescent signals, which corresponded to quantity of ATP and thus the quantity of metabolically active cells. Luminescent signals were measured using PHERAstar FS reader (BMG). Mean IC50 values for cell viability were determined with GraphPad Prism software. […] The anti-proliferative IC50s of these compounds were similarly determined as a percentage of viable cells upon treatment compared to the untreated control using CellTiter-GLO luminescent assay.

The term IC50 denotes the concentration at which inhibition is half-maximal. Low readings indicate greater potency in that assay, high ones weaker potency in that assay.

In assay [1], `O=C(NS(=O)(=O)c1ccc(NCC2CCOCC2)c([N+](=O)[O-])c1)c1ccc(N2CCC3(CCC(N4CCC[C@H]4c4ccccc4C4CC4)CC3)C2)cc1Oc1cnc2[nH]ccc2c1` (stereo partly drawn) [Example F42, (S)-2-((1H-pyrrolo[2,3-b]pyridin-5-yl)oxy)-4-(8-(2-(2-cyclopropylphenyl)pyrrolidin-1-yl)-2-azaspiro[4.5]decan-2-yl)-N-((3-nitro-4-(((tetrahydro-2H-pyran-4-yl)methyl)amino)phenyl)sulfonyl)benzamide] displayed an IC50 of 44 nM. `O=C(NS(=O)(=O)c1ccc(NCC2CCOCC2)c([N+](=O)[O-])c1)c1ccc(N2CC3(CN(CC4CCCN4c4ccccc4C4CC4)C3)C2)cc1Oc1cnc2[nH]ccc2c1` (stereo not drawn) [Example F114, 2-((1H-pyrrolo[2,3-b]pyridin-5-yl)oxy)-4-(6-((1-(2-cyclopropylphenyl)pyrrolidin-2-yl)methyl)-2,6-diazaspiro[3.3]heptan-2-yl)-N-((3-nitro-4-(((tetrahydro-2H-pyran-4-yl)methyl)amino)phenyl)sulfonyl)benzamide]: the “folds less potent than its analog in biochemical assay” value in assay [2] is on record as 28 to 80 folds. For the same molecule, the “folds less potent than its analog in cellular assay” value in assay [3] fell in the range of 15 to 22 folds.
